Measurements taken from ChEMBL document CHEMBL1201862, “PubChem BioAssay data set” (2004).
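Interpolation was linear, between the two tested concentrations surrounding the appropriate level; five concentrations were tested over 48 hours in 96-well plates. Abbreviation: GI50, concentration required for 50% inhibition of growth.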 Activity calls are given as the source filed them. Rule as the data show it: active = GI50 up to about 1.1 µM and inactive = higher.

Assays:
Assay in all cases: NCI-60 cell line screen, 48 h
MDA-N = tested on: MDA-N
U-251 = tested on: U-251
OVCAR-4 = tested on: OVCAR-4
UACC-62 = tested on: UACC-62
786-0 = tested on: 786-0
CCRF-CEM = tested on: CCRF-CEM
OVCAR-3 = tested on: OVCAR-3
SK-MEL-2 = tested on: SK-MEL-2
HOP-62 = tested on: HOP-62
KM12 = tested on: KM12
NCI-H23 = tested on: NCI-H23
UO-31 = tested on: UO-31
MOLT-4 = tested on: MOLT-4
TK-10 = tested on: TK-10
SNB-19 = tested on: SNB-19
A549 = tested on: A549
SF-268 = tested on: SF-268
NCI-H522 = tested on: NCI-H522
SK-OV-3 = tested on: SK-OV-3

Measured: GI50

C[N+]1(C)CC[N+](C)(C)[BH-]1C(O)O
inactive: MDA-N > 100 µM | U-251 > 100 µM | OVCAR-4 > 100 µM | UACC-62 > 100 µM | 786-0 > 100 µM | CCRF-CEM > 100 µM | OVCAR-3 > 100 µM | SK-MEL-2 > 100 µM | HOP-62 > 100 µM | KM12 > 100 µM | NCI-H23 > 100 µM | UO-31 > 100 µM | MOLT-4 > 100 µM | TK-10 > 100 µM | SNB-19 > 100 µM | A549 > 100 µM | SF-268 > 100 µM | NCI-H522 > 100 µM

C=CCc1cccc2cc(C(=O)Nc3ccccc3)c(=N)oc12
inactive: MDA-N 70.6 µM | U-251 > 100 µM | OVCAR-4 15.6 µM | UACC-62 41.1 µM | 786-0 30.3 µM | CCRF-CEM > 100 µM | OVCAR-3 > 100 µM | SK-MEL-2 8.47 µM | HOP-62 > 100 µM | KM12 38.9 µM | NCI-H23 79.8 µM | MOLT-4 > 100 µM | SNB-19 > 100 µM | A549 15 µM | SK-OV-3 61.7 µM | SF-268 > 100 µM | NCI-H522 10.4 µM

CSc1c(C#N)c(O)n(-c2ccc(Cl)cc2)c(=O)c1C#N
inactive: MDA-N > 100 µM | U-251 > 100 µM | OVCAR-4 > 100 µM | UACC-62 44.6 µM | 786-0 > 100 µM | OVCAR-3 > 100 µM | SK-MEL-2 > 100 µM | KM12 36 µM | NCI-H23 91.2 µM | UO-31 72.9 µM | MOLT-4 76.4 µM | TK-10 > 100 µM | SNB-19 > 100 µM | A549 80.4 µM | SK-OV-3 > 100 µM | SF-268 > 100 µM | NCI-H522 40.5 µM

S=C(CSc1ccccc1)Nc1cccc2ccccc12
inactive: MDA-N 40.7 µM | U-251 38.8 µM | OVCAR-4 21.6 µM | UACC-62 32.7 µM | 786-0 41.7 µM | OVCAR-3 20.8 µM | SK-MEL-2 24.3 µM | HOP-62 77.3 µM | KM12 40.8 µM | NCI-H23 41.4 µM | UO-31 46.2 µM | MOLT-4 21.6 µM | TK-10 36.3 µM | SNB-19 76.9 µM | A549 42 µM | SK-OV-3 > 100 µM | SF-268 61.1 µM | NCI-H522 20.9 µM

C[C@@H]1C[C@H]2[C@@H]3CCC4=CC(=O)C=C[C@]4(C)[C@@]3(Cl)[C@@H](Cl)C[C@]2(C)[C@@]1(O)C(=O)COP(=O)(O)O
inactive: MDA-N 56.2 µM | U-251 > 100 µM | OVCAR-4 > 100 µM | UACC-62 > 100 µM | 786-0 49.3 µM | OVCAR-3 > 100 µM | SK-MEL-2 > 100 µM | HOP-62 > 100 µM | KM12 > 100 µM | NCI-H23 > 100 µM | UO-31 > 100 µM | MOLT-4 22 µM | TK-10 > 100 µM | SNB-19 > 100 µM | A549 > 100 µM | SK-OV-3 > 100 µM | SF-268 > 100 µM | NCI-H522 > 100 µM

O=C(Nc1ccccc1)c1cc(S(=O)(=O)Nc2n[nH]c(=O)n2-c2ccccc2)c(S)cc1Cl
inactive: MDA-N > 100 µM | U-251 > 100 µM | OVCAR-4 > 100 µM | UACC-62 > 100 µM | 786-0 > 100 µM | OVCAR-3 > 100 µM | SK-MEL-2 > 100 µM | KM12 > 100 µM | UO-31 > 100 µM | MOLT-4 > 100 µM | TK-10 > 100 µM | SNB-19 > 100 µM | A549 > 100 µM | SK-OV-3 > 100 µM | SF-268 > 100 µM | NCI-H522 > 100 µM
